Source: ChEMBL document CHEMBL4842358, “Design, synthesis and biological evaluation of sphingosine-1-phosphate receptor 2 antagonists as potent 5-FU-resistance reversal agents for the treatment of colorectal cancer” (Eur J Med Chem, 2021)
Activity calls are given as the source filed them. The calls are words filed in the database; no cut-off is given here.

Columns and labels:
[1] = Reversal of 5-FU resistance against human SW620/5-FU cells xenografted in athymic nude mouse assessed as potentiation of 5-FU induced antitumor activity by measuring inhibition of tumor growth at 12.5 mg/kg/day, iv administered for 24 days in presence of 5-FU (reference value: 18.54%); type: functional; conditions: 576 h, time 24 day, read-out: TGI
[2] = target: T1, Sphingosine 1-phosphate receptor 2 (Homo sapiens, UniProt O95136); assay: Binding affinity to S1PR2 (unknown origin) assessed as dissociation constant measured for 60 secs by surface plasmon resonance assay
T1 sequence (O95136 whole entry): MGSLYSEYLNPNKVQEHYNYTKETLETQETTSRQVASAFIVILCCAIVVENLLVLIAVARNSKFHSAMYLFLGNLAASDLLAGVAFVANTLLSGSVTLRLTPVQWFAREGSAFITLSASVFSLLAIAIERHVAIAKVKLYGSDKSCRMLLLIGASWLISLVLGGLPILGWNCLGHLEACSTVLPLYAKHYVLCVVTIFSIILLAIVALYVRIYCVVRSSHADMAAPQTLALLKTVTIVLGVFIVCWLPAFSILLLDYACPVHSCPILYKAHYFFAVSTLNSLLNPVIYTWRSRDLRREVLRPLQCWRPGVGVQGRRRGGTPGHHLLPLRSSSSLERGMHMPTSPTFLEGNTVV

[3] = Half life in Sprague-Dawley rat blood at 1 mg/kg, iv measured for 24 hrs by LC-MS/MS analysis; type: ADME, organism-based
[4] = Volume of distribution in Sprague-Dawley rat blood at 1 mg/kg, iv measured for 24 hrs by LC-MS/MS analysis; type: ADME, organism-based
[5] = target: T1, Sphingosine 1-phosphate receptor 2; assay: Antagonist activity at S1PR2 in human SW620/5-FU cells assessed as reduction of DPD-catalyzed 5-FU degradation by measuring intracellular 5-FU level at 2 uM measured after 6 hrs by HPLC-UV analysis; type: functional, cell-based; conditions: filed as antagonist
[6] = AUC (0 to t) in Sprague-Dawley rat plasma at 1 mg/kg, iv measured for 24 hrs by LC-MS/MS analysis; type: ADME, organism-based; parameters: dose 1 mg/kg, time 24 hrs
[7] = Drug concentration in Sprague-Dawley rat blood at 1 mg/kg, iv measured after 8 hrs by LC-MS/MS analysis; type: ADME, organism-based; conditions: read-out: Ct
[8] = Half life in Sprague-Dawley rat plasma at 1 mg/kg, iv measured for 24 hrs by LC-MS/MS analysis; type: ADME, organism-based
Mus musculus [9] = assay: Downregulation of DPD expression in tumour of athymic nude mouse xenografted with human SW620/5-FU at 12.5 mg/kg/day, iv administered for 24 days in presence of 5-FU and measured on day 24 by immunohistochemistry; type: functional, organism-based; conditions: time 24.0 day
[10] = target: T1, Sphingosine 1-phosphate receptor 2; assay: Binding affinity to S1PR2 (unknown origin) assessed as association constant measured for 60 secs by surface plasmon resonance assay; conditions: filed as antagonist, time 60.0 sec
NCM460 = assay: Cytotoxicity against human NCM460 cells assessed as cell viability measured after 72 hrs in presence of 5-FU by MTT assay; type: cell-based; conditions: NCM460, 72 h
[11] = Mean residence time (0 to t) in Sprague-Dawley rat blood at 1 mg/kg, iv measured for 24 hrs by LC-MS/MS analysis; type: ADME, organism-based
[12] = Mean residence time (0 to infinity) in Sprague-Dawley rat plasma at 1 mg/kg, iv by LC-MS/MS analysis; type: ADME, organism-based
HCT-116 = assay: Reversal of 5-FU resistance against human HCT-116 cells overexpressing DPD assessed as inhibition of cell proliferation measured after 72 hrs in presence of 5-FU by MTT assay; type: functional, cell-based; conditions: HCT-116, 72 h
[13] = AUC (0 to t) in Sprague-Dawley rat blood at 1 mg/kg, iv measured for 24 hrs by LC-MS/MS analysis; type: ADME, organism-based; parameters: time 24 hrs, dose 1 mg/kg
[14] = Ratio of drug level in Sprague-Dawley rat blood to plasma at 1 mg/kg, iv measured for 24 hrs by LC-MS/MS analysis; type: ADME, organism-based; conditions: blood and plasma
[15] = Toxicity in athymic nude mouse xenografted with human SW620/5-FU cells assessed as histopathological changes in liver at 12.5 mg/kg/day, iv administered for 24 days in presence of 5-FU and measured on day 24 by immunohistochemistry; type: organism-based; conditions: in vivo, 576 h, time 24 day
[16] = Clearance in Sprague-Dawley rat plasma at 1 mg/kg, iv measured for 24 hrs by LC-MS/MS analysis; type: ADME, organism-based
[17] = Volume of distribution in Sprague-Dawley rat plasma at 1 mg/kg, iv measured for 24 hrs by LC-MS/MS analysis; type: ADME, organism-based
[18] = target: T1, Sphingosine 1-phosphate receptor 2; assay: Binding affinity to S1PR2 (unknown origin) measured by surface plasmon resonance assay; conditions: filed as antagonist
[19] = target: T1, Sphingosine 1-phosphate receptor 2; assay: Antagonist activity at S1PR2 in human SW620/5-FU cells assessed as reduction of DPD-catalyzed 5-FU degradation by measuring intracellular FBAL level at 2 uM measured after 6 hrs by HPLC-UV analysis; type: functional, cell-based; conditions: filed as antagonist
[20] = Initial plasma concentration in Sprague-Dawley rat at 1 mg/kg, iv by LC-MS/MS analysis; type: ADME, organism-based
Mus musculus [21] = assay: Downregulation of DPD expression in liver of athymic nude mouse xenografted with human SW620/5-FU at 12.5 mg/kg/day, iv administered for 24 days in presence of 5-FU and measured on day 24 by immunohistochemistry; type: functional, organism-based; conditions: time 24.0 day
[22] = AUC (0 to infinity) in Sprague-Dawley rat blood at 1 mg/kg, iv by LC-MS/MS analysis; type: ADME, organism-based; parameters: route intravenous, time infinity, dose 1 mg/kg
[23] = Initial drug concentration in Sprague-Dawley rat blood at 1 mg/kg, iv by LC-MS/MS analysis; type: ADME, organism-based
[24] = Clearance in Sprague-Dawley rat blood at 1 mg/kg, iv measured for 24 hrs by LC-MS/MS analysis; type: ADME, organism-based
[25] = Mean residence time (0 to infinity) in Sprague-Dawley rat blood at 1 mg/kg, iv by LC-MS/MS analysis; type: ADME, organism-based
[26] = Reversal of 5-FU resistance against human SW620/5-FU cells assessed as inhibition of cell proliferation measured after 72 hrs in presence of 5-FU by MTT assay; type: functional, cell-based
[27] = AUC (0 to infinity) in Sprague-Dawley rat plasma at 1 mg/kg, iv by LC-MS/MS analysis; type: ADME, organism-based; parameters: time infinity, route intravenous, dose 1 mg/kg
[28] = Mean residence time (0 to t) in Sprague-Dawley rat plasma at 1 mg/kg, iv measured for 24 hrs by LC-MS/MS analysis; type: ADME, organism-based
[29] = Toxicity in athymic nude mouse xenografted with human SW620/5-FU cells assessed as body weight loss at 12.5 mg/kg/day, iv administered for 24 days in presence of 5-FU and measured after 12 days; type: organism-based; conditions: in vivo, 288 h, time 12 day
[30] = Plasma concentration in Sprague-Dawley rat at 1 mg/kg, iv measured after 8 hrs by LC-MS/MS analysis; type: ADME, organism-based
Mus musculus [31] = assay: Downregulation of DPD expression in colon of athymic nude mouse xenografted with human SW620/5-FU cells at 12.5 mg/kg/day, iv administered for 24 days in presence of 5-FU and measured on day 24 by immunohistochemistry; type: functional, organism-based; conditions: time 24.0 day

Cc1nn(C)c2nc(NNC(=O)Nc3cc(Cl)nc(Cl)c3)cc(C(C)C)c12
inhibition in vivo at 12.5 mg/kg/day [1]: 29.9% | Dissociation rate constant (koff) [2]: 1.61 10^-1/s | half-life [3]: 60 min | Vd [4]: 2.1 L/kg | Activity [5]: 4.87 mg/L | AUC(0-t) at 24 h [6]: 482 ng·h/mL | concentration at 8 h [7]: < 1 ng/mL | half-life [8]: 66 min | inhibition (Mus musculus [9]): Active | Ka [10]: 8.21 10^4/M/s | EC50 (NCM460): 61.3 µM | MRT last at 24 h [11]: 54 min | MRT inf [12]: 54 min | EC50 (HCT-116): 17.1 µM | AUC(0-t) at 24 h [13]: 726 ng·h/mL | blood plasma ratio at 24 h [14]: 1.62 | Activity [15]: Non-Toxic | clearance [16]: 35 mL/min/kg | Vd [17]: 3.1 L/kg | K [18]: 1.96 10^-6M | Activity [19]: 1.37 mg/L | C0 [20]: 2020 ng/mL | inhibition (Mus musculus [21]): Active | AUC(0-inf) [22]: 738 ng·h/mL | C0 [23]: 1840 ng/mL | clearance [24]: 23.3 mL/min/kg | MRT inf [25]: 60 min | EC50 [26]: 58.6 µM | AUC(0-inf) [27]: 484 ng·h/mL | MRT last at 24 h [28]: 54 min | Activity [29]: Toxic | concentration at 8 h [30]: < 1 ng/mL | inhibition (Mus musculus [31]): inactive
